Entries after “also recorded” stand apart in the source; their conditions may differ. Read-outs that look alike come from different tables or passages of the source.
Tests used:
[1] = system: microglial cells and neurons in brain sections; test: Ex vivo fluorescence of brain sections after tail-vein injection of unlabeled SLN128 into 3-NP treated mice; assay type: in vivo; settings: anti-IBA1 and anti-NeuN
Description: FIG. 11 includes images showing post PET/CT imaging in accordance with the present disclosure. SLN128 (100 μL; 1 mg/mL) was injected through tail-vein into 3NP-or saline treated mice, and brain tissue was processed as described in FIG. 10A-FIG. 10D.
Systemic administration of LPS induces oxidative stress and resulting a release of inflammatory cytokines, sustained microglial activation, and neuronal cell loss in brain areas, such as the hippocampus, cerebral cortex, substantia nigra, ventral tegmental area, and thalamus, alters the levels of neurotransmitters in adult animals, and cerebellum. Thus LPS-induced inflammation provides a useful rodent model for preclinical imaging of ^18F-SLN-128. […] Finally, the brain uptake (see e.g., FIG. 9C) derived from PET imaging also correlated with 60 min post imaging quantified uptake (see e.g., FIG. 9D) indicating potential of the radiotracer for imaging endotoxin mediated brain inflammation in vivo. Mitochondrial dysfunction is a major event in the pathogenesis of Huntington disease (HD). It has also been reported that systemic 3-NP administration leads to oxidized proteins in the striatum, as well as a massive loss of striatal neurons. To evaluate potential of ^18F-SLN-128 PET imaging for 3NP-induced ROS-mediated neurodegeneration in mice, PET/CT imaging was performed.

[2] = system: reactive oxygen species (superoxide, hydroxyl radical); test: Detection of reactive oxygen species in vitro, fluorescence plate reader assay (G-GO, X-XO, SIN-1 systems); assay type: biochemical
Description: FIG. 3 is a bar graph showing evaluation of SLN128 for detection of reactive oxygen species in vitro in accordance with the present disclosure. Data are shown as mean fluorescence intensity (arbitrary units)±SD, where ****p<0.0001 values are determined by an unpaired student t-test. (Abbreviations: G: Glucose; GOX: Glucose oxidase; HRP: Horseradish peroxidase; X: Xanthine; XO: Xanthine oxidase; SOD: Superoxide Dismutase; CAT: Catalase. All values are normalized to fluorescence output of untreated SLN128 (control). Please note response to HRP induced hydroxyl radical in GGO system, its mitigation with CAT; and response to HX-XO (superoxide) and its intervention with SOD.
Of note, superoxide can originate from numerous sources in vivo, including the mitochondrial electron transport chain and NADPH oxidase(s), which are activated under conditions of inflammation, ischemia, and tissue injury. […] Therefore, the ability to detect elevated ROS in patients could provide a better understanding of relationships between ROS, tissue injury, and disease staging including information on signaling cascade that promote inflammation. To measure ROS production, various methods that use colorimetry, chemiluminescence, and fluorescence have been deployed, While xanthine-xanthine oxidase (X-XO) and SIN-1 have been used for production of superoxide and nitric oxide (wherein the combination produces peroxynitrite), respectively, the glucose-glucose oxidase (G-GO) system is useful for production of hydrogen peroxide. Employing concentrations of SLN128 and G-GO, and X-XO in vitro conditions described previously, the ability of SLN-128 or 12 to detect different reactive oxygen species at 37° C. in PBS was evaluated under physiological conditions (pH 7.2) and normalized by background fluorescence output of untreated SLN128 as a control using a fluorescence plate reader assay (see e.g., FIG. 3). […] Under both conditions, oxidation of the probe was neutralized by the addition of superoxide dismutase (SOD) (see e.g., FIG. 3). […] (see e.g., FIG. 3).

[3] = system: human glioblastoma U87 cells; test: Live-cell fluorescence imaging of cellular accumulation in U87 cells; assay type: cell-based; settings: for intracellular localization: U87 cells, 100× objective, with mitotracker / mitoSOX
Description: FIG. 4 includes images showing cellular accumulation of SLN128 (20 nM) in human glioblastoma (U87) cells using live-cell fluorescence imaging: intracellular localization in accordance with the present disclosure. SLN128 was incubated at 37° C. for 1 h with either mitotracker red/or mitoSOX Deep Red in human U87MG cells. Images were acquired using a 100×objective.
FIG. 5 includes images showing cellular accumulation of SLN128 (20 nM) in human glioblastoma (U87) cells using live-cell fluorescence imaging in accordance with the present disclosure. SLN128 was incubated for 1 h either with media (control), LPS treated (1 μg/mL; 3 h) or 3-nitropropionic acid (3-NP; 10 μg/mL) human U87MG cells: Images were acquired using a 20×objective.
FIG. 6 is a bar graph showing cellular accumulation of SLN128 in either serum and glucose deprived- or LPS or 3 NP-treated U87 cells in either presence or absence of resveratrol (10 μM) in accordance with the present disclosure. Images were acquired using a 20×objective (all panels represent same magnification) in live human U87 cells. While U87 control cells were plated under normal conditions, both serum-and glucose-deprived (Starvation), and LPS/3-NP treated cells were allowed to recover in presence of resveratrol) for 24 h and treated with SLN-128(20 nM) for 60 min, cell uptake was evaluated via live-cell imaging, and quantified as described earlier. Corrected Total Cell Fluorescence (CTCF)=Integrated Density-(Area of selected cell X Mean fluorescence of background readings); (mean±SD), where **p<0.01 and […] are determined by an unpaired student t-test.
Lipopolysaccharide (LPS), is an endotoxin, released from Gram-negative bacteria. Next, the ability of SLN128 to detect either LPS or 3-Nitropropionic acid (3-NP) induced ROS in human cells was evaluated through live-cell fluorescence imaging. LPS is detected by toll-like receptor 4 (TLR4), a broadly expressed pattern recognition receptor found both on different cell types, including glial cells, and neurons. TLR4 engagement triggers the generation of mitochondrial superoxide from electron transport complex I, which in turn promotes bacterial killing. LPS treatment also triggers increased cytokine and chemokine expression in brain thus driving inflammation. […] To this end, intracellular localization of SLN-128 in either the presence or absence of mitotracker deep red (control) was simulataneously assessed in either the LPS or 3-NP stimulated human glioblastoma U87 cells (see e.g., FIG. 4). […] The probe uptake was quantified as corrected total cell fluorescence (CTCF) using image J as described earlier. […] Uptake in brain and other critical organs was analyzed in terms of percent injected dose per gram of the tissue (% ID/g).

[4] = Fluorescence emission of the probe before and after oxidation; assay type: physicochemical
[5] = normal mice, cited from earlier work
[6] = PBS with 1.0% ethanol, excited with a 402 nm laser

COc1ccc2c(c1)N(C)C(c1ccc(O)c(OCCF)c1)c1cccn1-2 (stereo not shown) [SLN128]
localization in brain sections ex vivo [1]: localizes in microglial cells and neurons; also recorded: maps markers for microglial and neuronal cells
reactive oxygen species detected [2]: both superoxide and hydroxyl radical
fluorescence response in G-GO system ([2]; 37° C., PBS pH 7.2): only a slight increase in fluorescence
response to HRP in G-GO system (hydroxyl radical) ([2]; 37° C., PBS pH 7.2, normalized to untreated SLN128): 10 fold
detection of superoxide ([2]; xanthine oxidase/xanthine or SIN-1 with CPTIO, neutralized by SOD): ability to detect superoxide
fluorescence in LPS- or 3-NP stimulated cells compared to untreated U87 cells ([3]; LPS or 3-NP stimulation): higher fluorescence
intracellular localization [3]: penetrates into mitochondria of U87 cells
intracellular localization ([3]; listed as SLN 128): maps both mitotracker and mitoSOX
monitoring of therapeutic effect (CTCF) ([3]; presence or absence of resveratrol): ability to monitor resveratrol-induced mitigation of ROS
broad emission peak [4, 6]: 520-540 nm
emission maximum [4, 6]: 530 nm
enhancement of mean fluorescence intensity following oxidation ([4]; following its oxidation): 4 fold

CNc1ccc(/C=C/c2ccc(OCCOCCOCC[18F])nc2)cc1 [[^18F]-AVID-45, [^18F]-Florbetapir]
brain uptake ([5]; 2 min): 7.33±1.54 % ID/g
brain uptake ([5]; 2 h): 1.80±0.07 % ID/g
brain uptake ratio 2 min/2 h [5]: 4.07

CNc1ccc(/C=C/c2ccc(OCCOCCOCC[18F])cc2)cc1 [[^18F]-Florbetaben]
brain uptake ([5]; 2 min): 4.77 % ID/g
brain uptake ([5]; 4 h): 0.95 % ID/g
brain uptake ratio 2 min/4 h [5]: 5.0

COCOc1ccc(-c2c3cccn3c3ccc(OC)cc3[n+]2C)cc1OCCF.[I-] [compound 15]
emission shift following oxidation ([4]; oxidized form): 580 nm

Reference: US20240226342A1, “REACTIVE OXYGEN SPECIES IMAGING AGENTS” (Washington University, priority 2022, published 2024)
